Test results taken from the supplement of paper PMC8967900.

Legend:
Test in all cases: selective drug sensitivity score (sDSS, relative to normal bone marrow) (sDSS (score)); higher = more potent and effective on the cell line relative to normal bone marrow cells
Details in all cases: 72 h
P12-ICHIKAWA = tested on: P12-ICHIKAWA
COG-LL-402h = tested on: COG-LL-402h
KASUMI-9 = tested on: KASUMI-9
RPMI-8402 = tested on: RPMI-8402
TMD5 = tested on: TMD5
KASUMI-10 = tested on: KASUMI-10
NALL-1 = tested on: NALL-1
LC4-1 = tested on: LC4-1
MOLT-4 = tested on: MOLT-4
NALM-16 = tested on: NALM-16
MOLT-14 = tested on: MOLT-14
HPB-ALL = tested on: HPB-ALL
380 = tested on: 380
COG-LL-319h = tested on: COG-LL-319h
COG-LL-355h = tested on: COG-LL-355h
KOPN-8 = tested on: KOPN-8
MHH-CALL-3 = tested on: MHH-CALL-3
DND-41 = tested on: DND-41
MN-60 = tested on: MN-60
REH = tested on: REH
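Note: ALL cell lines in 384-well plates, five doses spanning 10,000-fold, each plate scaled between vehicle and 100 µmol/L benzalkonium chloride controls, sDSS an adapted area-under-curve metric.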

Row | Compound | selective drug sensitivity score (P12-ICHIKAWA) | selective drug sensitivity score (COG-LL-402h) | selective drug sensitivity score (KASUMI-9) | selective drug sensitivity score (RPMI-8402) | selective drug sensitivity score (TMD5) | selective drug sensitivity score (KASUMI-10) | selective drug sensitivity score (NALL-1) | selective drug sensitivity score (LC4-1) | selective drug sensitivity score (MOLT-4) | selective drug sensitivity score (NALM-16) | selective drug sensitivity score (MOLT-14) | selective drug sensitivity score (HPB-ALL) | selective drug sensitivity score 380 | selective drug sensitivity score (COG-LL-319h) | selective drug sensitivity score (COG-LL-355h) | selective drug sensitivity score (KOPN-8) | selective drug sensitivity score (MHH-CALL-3) | selective drug sensitivity score (DND-41) | selective drug sensitivity score (MN-60) | selective drug sensitivity score (REH)
1 | C[C@@H]1CN(CC(=O)Nc2ccc3c(c2)Cc2cccc(-c4cc(=O)cc(N5CCOCC5)o4)c2S3)C[C@H](C)O1 (top concentration 25000 nM) | -0.58 | 1.92 | 1.22 | 1.82 | -2.18 | -2.18 | -2.18 | 4.12 | -0.08 | -2.18 | 0.32 | 2.22 | -1.88 | 6.72 | 3.02 | 5.72 | -2.18 | 4.02 | -2.18 | 6.12
2 | O=C(c1cccc(Cl)c1F)N1CCN(Cc2cccc(Nc3nccs3)n2)CC1 [MK-8745] (top concentration 10000 nM) | 11.3 | 14.1 | 13.2 | 9.4 | 9.4 | 11.2 | 12.4 | 11.5 | 11.8 | 12.4 | 7.8 | 7 | 18.3 | 14.3 | 2.7 | 13.2 | 7.1 | 5.5 | 1.6 | 11.6
3 | COc1ccc(-c2ccc3ncc4c(c3c2)n(-c2ccc(N3CCNCC3)c(C(F)(F)F)c2)c(=O)n4C)cn1 [NVP-BGT226] (top concentration 1000 nM) | 2.72 | 5.92 | 8.42 | 4.42 | -5.58 | -0.18 | -2.88 | 2.22 | 5.42 | -0.18 | 1.52 | -0.18 | 12.2 | 0.72 | 6.42 | 9.52 | 0.62 | 2.12 | 5.72 | 8.22
4 | Cc1[nH]c2ccccc2c1CCNCc1ccc(/C=C/C(=O)NO)cc1 [Panobinostat] (top concentration 1000 nM) | 4.14 | 14.6 | 11.7 | 4.14 | 2.74 | 7.74 | -0.46 | 5.84 | 2.94 | 2.94 | 6.74 | 10.1 | 12.1 | 14.2 | 4.84 | 18.2 | 15.6 | 5.04 | -1.46 | 0.44
5 | O=C(CCCCCCC(=O)Nc1ccccc1)NO [Vorinostat] (top concentration 10000 nM) | 6.6 | 10.2 | 11.6 | 8.2 | -0.1 | 4.6 | -3.5 | 8.2 | 5.8 | 1.5 | 9.6 | 6 | 8.8 | 11.5 | 7.7 | 13.4 | 14.1 | 2.2 | 0.8 | 4.5
6 | Cc1cc(Nc2cc(N3CCN(C)CC3)nc(/C=C/c3ccccc3)n2)n[nH]1 [ENMD-2076] (top concentration 10000 nM) | 8.24 | 4.24 | 9.24 | 1.44 | -0.26 | 9.14 | 5.84 | 7.64 | 5.74 | -0.06 | 6.64 | 4.44 | 2.54 | 5.54 | 4.04 | 8.34 | -2.76 | -0.46 | -1.46 | 4.14
7 | C=CC(=O)Nc1cc2c(Nc3ccc(F)c(Cl)c3)ncnc2cc1OCCCN1CCOCC1 [Canertinib] (top concentration 10000 nM) | -1.54 | 4.86 | 3.76 | -1.54 | 4.96 | 4.66 | -0.94 | 2.76 | -2.14 | -0.14 | -0.04 | 0.76 | 3.16 | 3.36 | 5.96 | 4.36 | 12.6 | 1.36 | -4.14 | 0.26
8 | Cn1ncnc1[C@H]1c2n[nH]c(=O)c3cc(F)cc(c23)N[C@@H]1c1ccc(F)cc1 [Talazoparib] (top concentration 1000 nM) | -0.52 | 11.1 | 8.98 | 0.58 | -1.52 | 3.38 | 8.78 | 3.18 | 9.68 | -2.82 | 10.5 | -4.92 | 21.4 | 21.3 | 8.28 | 27.5 | 20.3 | 3.48 | -4.92 | -3.72
